The source of these data is paper PMC3419577 (The Journal of neuroscience : the official journal of the …, 2012).

The subject of this test is cells in posterior cortex (V1), fresh frozen sections. Put plainly: Binding of AP-fusion proteins on fresh-frozen brain sections. The settings on record: AP staining, competitor with AP-NtHD. More on the design: species or system mouse.

For “Full-length Otx2: non-tagged, full-length Otx2 used as competitor”, the “competition of AP-NtHD binding” value was “disrupts AP-NtHD cortical binding”.
